Test results taken from ChEMBL document CHEMBL4609973, “Hepatitis C - New drugs and treatment prospects” (Eur J Med Chem, 2019).

Assays:
[1] = Absolute bioavailability in human; assay type: ADME, organism-based; details: in vivo
[2] = Half life in human; assay type: ADME
[3] = Drug excretion in human feces assessed as ombitasvir level; assay type: ADME, tissue-based; details: faeces, read-out: Drug excretion
[4] = Drug excretion in human feces assessed as dasabuvir level; assay type: ADME, tissue-based; details: faeces, read-out: Drug excretion
[5] = Oral bioavailability in human; assay type: ADME, organism-based; details: in vivo
[6] = Drug excretion in human feces assessed as daclatasvir level; assay type: ADME, tissue-based; details: faeces, read-out: Drug excretion
[7] = Oral bioavailability in human under fed condition; assay type: ADME, organism-based; details: in vivo
[8] = Half life in HIV infected human; assay type: ADME

half-life [2] [h]	Structure (SMILES)	further results
21 to 25	COC(=O)N[C@H](C(=O)N1CCC[C@H]1C(=O)Nc1ccc([C@@H]2CC[C@@H](c3ccc(NC(=O)[C@@H]4CCCN4C(=O)[C@@H](NC(=O)OC)C(C)C)cc3)N2c2ccc(C(C)(C)C)cc2)cc1)C(C)C [OMBITASVIR]	bioavailability [1]: 48%; dose excreted [3]: 90.2%
23 to 29	COC(=O)N[C@H](C(=O)N1CCC[C@H]1c1nc2cc([C@H]3CC[C@H](c4cc5nc([C@@H]6CCCN6C(=O)[C@@H](NC(=O)OC)[C@@H](C)OC)[nH]c5cc4F)N3c3cc(F)c(N4CCC(c5ccc(F)cc5)CC4)c(F)c3)c(F)cc2[nH]1)[C@@H](C)OC [PIBRENTASVIR]	–
5.5	Cc1cnc(C(=O)N[C@H]2CCCCC/C=C\[C@@H]3C[C@@]3(C(=O)NS(=O)(=O)C3CC3)NC(=O)[C@@H]3C[C@@H](Oc4nc5ccccc5c5ccccc45)CN3C2=O)cn1 [PARITAPREVIR]	bioavailability [1]: 53%
47	COC(=O)N[C@H](C(=O)N1CC2(CC2)C[C@H]1c1ncc(-c2ccc3c(c2)C(F)(F)c2cc(-c4ccc5nc([C@@H]6[C@H]7CC[C@H](C7)N6C(=O)[C@@H](NC(=O)OC)C(C)C)[nH]c5c4)ccc2-3)[nH]1)C(C)C [LEDIPASVIR]	bioavailability [5]: 76%
15	COC[C@H]1C[C@@H](c2ncc(-c3ccc4c(c3)COc3cc5c(ccc6nc([C@@H]7CC[C@H](C)N7C(=O)[C@@H](NC(=O)OC)C(C)C)[nH]c65)cc3-4)[nH]2)N(C(=O)[C@H](NC(=O)OC)c2ccccc2)C1 [VELPATASVIR]	–
10 to 13	COc1ccc2c(O[C@@H]3C[C@H]4C(=O)N[C@]5(C(=O)NS(=O)(=O)C6CC6)C[C@H]5/C=C\CCCCN(C)C(=O)[C@@H]4C3)cc(-c3nc(C(C)C)cs3)nc2c1C [SIMEPREVIR]	bioavailability [7]: 62%; half-life [8]: 41 h

Further lines, the compound ahead of its results:

Structure (SMILES)	half-life [2] [h]	further results
COc1c(-c2ccc3cc(NS(C)(=O)=O)ccc3c2)cc(-n2ccc(=O)[nH]c2=O)cc1C(C)(C)C [DASABUVIR]	5.5 to 6	bioavailability [1]: 70%; dose excreted [4]: 26.2%
CC(C)(C)[C@@H]1NC(=O)O[C@@H]2CCC[C@H]2OC/C=C/C(F)(F)c2nc3ccccc3nc2O[C@@H]2C[C@@H](C(=O)N[C@]3(C(=O)NS(=O)(=O)C4(C)CC4)C[C@H]3C(F)F)N(C2)C1=O [GLECAPREVIR]	6	–
C[C@@]1(F)[C@H](O)[C@@H](CO)O[C@H]1n1ccc(=O)[nH]c1=O	27	–
CC(C)OC(=O)[C@H](C)N[P@](=O)(OC[C@H]1O[C@@H](n2ccc(=O)[nH]c2=O)[C@](C)(F)[C@@H]1O)Oc1ccccc1 [SOFOSBUVIR]	0.4	bioavailability [5]: 92%
COC(=O)N[C@H](C(=O)N1CCC[C@H]1c1nc(-c2ccc3c(c2)O[C@@H](c2ccccc2)n2c-3cc3cc(-c4c[nH]c([C@@H]5CCCN5C(=O)[C@@H](NC(=O)OC)C(C)C)n4)ccc32)c[nH]1)C(C)C [ELBASVIR]	24	–
COC(=O)N[C@H](C(=O)N1CCC[C@H]1c1nc(-c2ccc(-c3ccc(-c4c[nH]c([C@@H]5CCCN5C(=O)[C@@H](NC(=O)OC)C(C)C)n4)cc3)cc2)c[nH]1)C(C)C [DACLATASVIR]	12 to 15	dose excreted [6]: 53%; bioavailability [5]: 67%
C=C[C@@H]1C[C@]1(NC(=O)[C@@H]1C[C@@H]2CN1C(=O)[C@H](C(C)(C)C)NC(=O)O[C@@H]1C[C@H]1CCCCCc1nc3ccc(OC)cc3nc1O2)C(=O)NS(=O)(=O)C1CC1 [GRAZOPREVIR ANHYDROUS]	31	–
